Source: US20110183963A1 (priority 2009, published 2011)
Values belong to the compound of their own block, whether it stands above or below them.

Experiments:
[1] = to be dosed efficiently via oral gavage in rats
[2] = target: human NET (Homo sapiens, UniProt P23975); conditions: relative to quetiapine; cited from earlier work
[3] = target: T1, 5-HT1A receptor (Homo sapiens, UniProt P08908); conditions: relative to quetiapine; cited from earlier work
T1 sequence (P08908 1-422): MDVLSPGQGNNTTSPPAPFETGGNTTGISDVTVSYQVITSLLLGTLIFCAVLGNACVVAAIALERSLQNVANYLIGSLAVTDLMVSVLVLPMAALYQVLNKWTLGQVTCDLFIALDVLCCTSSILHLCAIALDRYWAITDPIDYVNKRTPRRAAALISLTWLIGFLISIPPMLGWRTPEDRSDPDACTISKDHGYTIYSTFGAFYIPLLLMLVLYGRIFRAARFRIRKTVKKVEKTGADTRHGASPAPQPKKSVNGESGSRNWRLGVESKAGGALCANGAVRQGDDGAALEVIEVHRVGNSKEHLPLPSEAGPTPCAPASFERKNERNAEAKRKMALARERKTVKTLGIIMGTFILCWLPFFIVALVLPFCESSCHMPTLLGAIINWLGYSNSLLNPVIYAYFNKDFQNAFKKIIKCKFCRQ

[4] = test system: leptin; conditions: chronic oral administration for a period of 6 weeks; cited from earlier work
[5] = cited from earlier work

Sequence of human NET (P23975 whole entry): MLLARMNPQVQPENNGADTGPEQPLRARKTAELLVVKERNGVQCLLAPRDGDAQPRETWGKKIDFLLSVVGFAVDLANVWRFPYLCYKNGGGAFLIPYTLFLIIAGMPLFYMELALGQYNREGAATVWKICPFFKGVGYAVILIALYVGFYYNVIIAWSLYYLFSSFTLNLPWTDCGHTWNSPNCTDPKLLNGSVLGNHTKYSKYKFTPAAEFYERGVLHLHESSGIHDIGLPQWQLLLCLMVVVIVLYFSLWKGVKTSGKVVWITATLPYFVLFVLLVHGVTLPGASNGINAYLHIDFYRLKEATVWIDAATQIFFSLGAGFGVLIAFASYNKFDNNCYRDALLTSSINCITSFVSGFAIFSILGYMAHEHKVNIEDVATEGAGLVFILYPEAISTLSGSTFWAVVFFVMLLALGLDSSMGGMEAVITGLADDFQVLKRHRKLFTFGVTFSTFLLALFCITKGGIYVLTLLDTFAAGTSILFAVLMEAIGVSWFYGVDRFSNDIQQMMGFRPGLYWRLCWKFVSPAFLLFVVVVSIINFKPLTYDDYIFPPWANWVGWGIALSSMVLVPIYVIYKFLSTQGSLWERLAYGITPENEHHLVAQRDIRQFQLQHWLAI

- solubility for oral gavage dosing [1]: not soluble enough
Structure (SMILES): OCCOCCN1CCN(C2=Nc3ccccc3Sc3ccccc32)CC1 [fumarate]

Structure (SMILES): c1ccc2c(c1)N=C(N1CCNCC1)c1ccccc1S2 [N-desalkyl-quetiapine, 4-(dibenzo[b,f][1,4]thiazepin-11-yl)piperazine]
- higher avidity for inhibiting human NET than quetiapine itself [2]: about 100 fold
- more potent than quetiapine at the 5-HT1A receptor [3]: 10 fold

Structure (SMILES): OCCOCCN1CCN(C2=Nc3ccccc3Sc3ccccc32)CC1 [quetiapine, 2-(2-(4-(dibenzo[b,f][1,4]thiazepin-11-yl)piperazin-1-yl)ethoxy)ethanol]
- increase in leptin release [4]: about 37%
- Absolute bioavailability ([5]; estimated): 9%
- terminal half-life time for the drug's elimination ([5]; in vivo): about 7 hours
